The values below come from patent US7772263B2, “Compounds for the treatment of inflammatory disorders” (Schering Corporation, priority 2006, dated 2010).

Molecules are shown by their SMILES.

The target in the first assay is T1, purified catalytic domain of recombinant human TACE (rhTACEc) (Homo sapiens, UniProt P78536, N452Q/S266A).
T1 construct: rhTACEc, Residue 215 to 477 with two mutation (S266A and N4520) and a 6×His tail; 6xHis (C); made in house; host or cells: baculovirus/Hi5 insect cells
T1 sequence (P78536 215-477 S266A/N452Q limits assumed): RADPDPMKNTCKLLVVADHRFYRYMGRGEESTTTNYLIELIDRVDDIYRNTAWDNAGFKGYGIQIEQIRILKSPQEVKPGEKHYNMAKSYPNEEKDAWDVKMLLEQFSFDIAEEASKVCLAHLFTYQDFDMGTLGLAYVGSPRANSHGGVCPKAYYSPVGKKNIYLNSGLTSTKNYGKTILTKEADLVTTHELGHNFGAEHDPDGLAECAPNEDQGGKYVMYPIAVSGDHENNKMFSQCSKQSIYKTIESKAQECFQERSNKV
The experiment in a line: TACE kinetic assay, cleavage of internally quenched fluorescent peptide substrate SPDL-3. The settings on record: Ki (nM), TACE inhibitory activity, rhTACEc 70 pM, 30 μM SPDL-3, 90 min pre-incubation at 25° C. In kind it is biochemical.
Take `COc1ccc2c(c1)C(=O)N(C[C@@]1(C#Cc3ccc4[nH]ccc4c3)NC(=O)NC1=O)C2` [Compound 1129]: the Ki (commonly the equilibrium dissociation constant of an inhibitor or competing ligand from its target) is 0.17 nM.

Still in this assay, the particulars now being: TACE; class letters A-D; read-out: Ki Rating.
Regarding `CON=Cc1ccc(C#C[C@]2(CN3Cc4ccc(OC)cc4C3=O)NC(=O)NC2=O)s1` [Compound 1084], the Ki is less than 5 nM.

As for `CO/N=C/c1cccc(C#C[C@]2(CN3Cc4ccc(OC)cc4C3=O)NC(=O)NC2=O)c1` [Compound 1085], the Ki is less than 5 nM.

In the case of `CON=Cc1ccc(C#C[C@]2(CN3Cc4ccc(OC)cc4C3=O)NC(=O)NC2=O)cc1` [Compound 1086], the Ki is less than 5 nM.

`COc1ccc2c(c1)CCN(CC1(C#Cc3cccnc3)NC(=O)NC1=O)C2=O` (centres unmarked) [Compound 1087]: the Ki was less than 5 nM.

Take `COc1ccc2c(c1)CCN(CC1(C#Cc3ccc(Cl)s3)NC(=O)NC1=O)C2=O` (centres unmarked) [Compound 1088]: the Ki lay in the range of 5 to 25 nM.

Regarding `COc1ccc2c(c1)C(=O)N(C[C@@]1(C#Cc3cccc(C=NO)c3)NC(=O)NC1=O)C2` [Compound 1089], the inhibition constant (Ki) was less than 5 nM.

On to `COc1ccc2c(c1)C(=O)N(C[C@@]1(C#Cc3ccc(C(C)=NO)s3)NC(=O)NC1=O)C2` [Compound 1090], for which the inhibitory constant (Ki) is less than 5 nM.

`COc1ccc2c(c1)C(=O)N(C[C@@]1(C#Cc3ccc(C=NO)cc3)NC(=O)NC1=O)C2` [Compound 1091]: the Ki was less than 5 nM.

Consider `COc1ccc2c(c1)CCN(C[C@@]1(C#Cc3cccnc3)NC(=O)NC1=O)C2=O` [Compound 1092], for which the Ki is less than 5 nM.

For the compound `COc1ccc2c(c1)CCN(C[C@@]1(C#Cc3ccc(Cl)s3)NC(=O)NC1=O)C2=O` [Compound 1093], the Ki is less than 5 nM.

On to `COc1ccc2c(c1)C(=O)N(C[C@]1(C#Cc3cnc4[nH]c(C)nc4c3C)NC(=O)NC1=O)C2` [Compound 1094], for which the Ki was more than 100 nM.

Turning to `COc1ccc2c(c1)C(=O)N(C[C@@]1(C#Cc3ccc4c(c3)n(C)c(=O)n4C)NC(=O)NC1=O)C2` [Compound 1095], the Ki was less than 5 nM.

Turning to `COc1ccc2c(c1)CCN(C[C@]1(C#Cc3cccnc3)NC(=O)NC1=O)C2=O` [Compound 1096], the Ki was more than 100 nM.

`COc1ccc2c(c1)CCN(C[C@]1(C#Cc3ccc(Cl)s3)NC(=O)NC1=O)C2=O` [Compound 1097]: the Ki was more than 100 nM.

As for `COc1ccc2c(c1)C(=O)N(C[C@@]1(C#Cc3cnc4[nH]c(C)nc4c3C)NC(=O)NC1=O)C2` [Compound 1098], the Ki was less than 5 nM.

On to `COc1ccc2c(c1)C(=O)N(C[C@@]1(C#Cc3ccc4[nH]ccc4c3)NC(=O)NC1=O)C2` [Compound 1129], for which the Ki is less than 5 nM.

Turning to `COc1ccc2c(c1)C(=O)N(C[C@]1(C#Cc3ccc4[nH]ccc4c3)NC(=O)NC1=O)C2` [Compound 1130], the Ki lay in the range of 5 to 25 nM.

In the case of `COc1ccc2c(c1)C(=O)N(C[C@@]1(C#Cc3ccc4cc[nH]c4c3)NC(=O)NC1=O)C2` [Compound 1131], the Ki is less than 5 nM.

In the case of `COc1ccc2c(c1)C(=O)N(C[C@@]1(C#Cc3cccc4[nH]ccc34)NC(=O)NC1=O)C2` [Compound 1132], the Ki is less than 5 nM.

For `COc1ccc2c(c1)C(=O)N(C[C@@]1(C#Cc3ccc(C(N)=O)cc3)NC(=O)NC1=O)C2` [Compound 1133], the Ki is less than 5 nM.

Regarding `COc1ccc2c(c1)C(=O)N(C[C@@]1(C#Cc3cccc(C(N)=O)c3)NC(=O)NC1=O)C2` [Compound 1134], the Ki is less than 5 nM.

With `CCOC(=O)c1ccc(C#C[C@]2(CN3Cc4ccc(OC)cc4C3=O)NC(=O)NC2=O)cc1` [Compound 1135], the Ki is less than 5 nM.

Take `COc1ccc2c(c1)C(=O)N(C[C@@]1(C#Cc3ccc(-c4ncc[nH]4)cc3)NC(=O)NC1=O)C2` [Compound 1136]: the Ki is less than 5 nM.

Consider `COc1ccc2c(c1)C(=O)N(C[C@@]1(C#Cc3ccccc3C(N)=O)NC(=O)NC1=O)C2` [Compound 1137], for which the Ki was less than 5 nM.

In the case of `COc1ccc2c(c1)C(=O)N(C[C@@]1(C#Cc3ccc(C(=O)O)cc3)NC(=O)NC1=O)C2` [Compound 1138], the Ki is less than 5 nM.

As for `COc1ccc2c(c1)C(=O)N(C[C@@]1(C#Cc3ccc4c(c3)OCO4)NC(=O)NC1=O)C2` [Compound 1139], the Ki is less than 5 nM.

Turning to `COc1ccc2c(c1)C(=O)N(C[C@@]1(C#Cc3ccc(Cl)c(C(=O)O)c3)NC(=O)NC1=O)C2` [Compound 1140], the Ki was less than 5 nM.

As to `CNC(=O)c1ccc(C#C[C@]2(CN3Cc4ccc(OC)cc4C3=O)NC(=O)NC2=O)cc1` [Compound 1141], the Ki is less than 5 nM.

Consider `COc1ccc2c(c1)C(=O)N(C[C@@]1(C#Cc3ccc(C(=O)NCCN(C)C)cc3)NC(=O)NC1=O)C2` [Compound 1142], for which the Ki is less than 5 nM.

For the compound `COc1ccc2c(c1)C(=O)N(C[C@@]1(C#Cc3ccc(Cl)c(C(=O)NCCN(C)C)c3)NC(=O)NC1=O)C2` [Compound 1143], the Ki is less than 5 nM.

On to `CNC(=O)c1cc(C#C[C@]2(CN3Cc4ccc(OC)cc4C3=O)NC(=O)NC2=O)ccc1Cl` [Compound 1144], for which the Ki was less than 5 nM.

Regarding `COc1ccc2c(c1)C(=O)N(C[C@@]1(C#Cc3ccc(C(=O)N4CCOCC4)cc3)NC(=O)NC1=O)C2` [Compound 1145], the Ki was less than 5 nM.

In the case of `COc1ccc2c(c1)C(=O)N(C[C@@]1(C#Cc3ccccc3Cl)NC(=O)NC1=O)C2` [Compound 1146], the Ki is less than 5 nM.

In the case of `COc1cccc(C#C[C@]2(CN3Cc4ccc(OC)cc4C3=O)NC(=O)NC2=O)c1` [Compound 1147], the Ki was less than 5 nM.

For the compound `COc1ccc2c(c1)C(=O)N(C[C@@]1(C#Cc3cccc(OC(F)F)c3)NC(=O)NC1=O)C2` [Compound 1148], the Ki was less than 5 nM.

On to `COc1ccc2c(c1)C(=O)N(C[C@@]1(C#Cc3ccc(F)c(OC)c3)NC(=O)NC1=O)C2` [Compound 1149], for which the Ki was less than 5 nM.

In the case of `COc1ccc2c(c1)C(=O)N(C[C@@]1(C#Cc3ccc(F)c(O)c3)NC(=O)NC1=O)C2` [Compound 1150], the Ki is less than 5 nM.

On to `COc1ccc2c(c1)C(=O)N(C[C@@]1(C#Cc3ccc(F)c(C(N)=O)c3)NC(=O)NC1=O)C2` [Compound 1151], for which the inhibition constant (Ki) is less than 5 nM.

Take `COc1ccc2c(c1)C(=O)N(C[C@@]1(C#Cc3ccc(N)nc3)NC(=O)NC1=O)C2` [Compound 1152]: the Ki is less than 5 nM.

With `COc1ccc2c(c1)C(=O)N(C[C@@]1(C#Cc3ccc(N4CCOCC4)nc3)NC(=O)NC1=O)C2` [Compound 1153], the Ki was less than 5 nM.

`COc1ccc2c(c1)C(=O)N(C[C@@]1(C#Cc3ccccc3C#N)NC(=O)NC1=O)C2` [Compound 1154]: the Ki was less than 5 nM.

Consider `COc1ccc2c(c1)C(=O)N(C[C@@]1(C#Cc3ccc(C)nc3)NC(=O)NC1=O)C2` [Compound 1155], for which the Ki is less than 5 nM.

For `COc1ccc2c(c1)C(=O)N(C[C@@]1(C#Cc3ccc(C)cc3)NC(=O)NC1=O)C2` [Compound 1156], the Ki is less than 5 nM.

With `COc1ccc2c(c1)C(=O)N(C[C@@]1(C#Cc3ccc(NC(C)=O)nc3)NC(=O)NC1=O)C2` [Compound 1157], the Ki is less than 5 nM.

For `O=C1NC(=O)[C@@](C#Cc2cccnc2)(CN2Cc3ccc(F)cc3C2=O)N1` [Compound 1200], the Ki was less than 5 nM.

As to `COc1ccc2c(c1)CN(C[C@@]1(C#Cc3cc(F)cc(F)c3)NC(=O)NC1=O)C2=O` [Compound 1201], the Ki is less than 5 nM.

As for `COc1ccc2c(c1)CN(C[C@@]1(C#Cc3ccc(F)cc3F)NC(=O)NC1=O)C2=O` [Compound 1202], the Ki was less than 5 nM.

Staying with this assay, now noted: rhTACEc 70 pM, 30 μM SPDL-3, 90 min pre-incubation at 25° C.; read-out: Ki (nM), TACE inhibitory activity.
As for `COc1ccc2c(c1)C(=O)N(C[C@@]1(C#Cc3ccc(C(C)=NO)s3)NC(=O)NC1=O)C2` [Compound 1090], the Ki stood at 0.3 nM.

In the case of `COc1ccc2c(c1)CCN(C[C@@]1(C#Cc3cccnc3)NC(=O)NC1=O)C2=O` [Compound 1092], the Ki is 0.37 nM.

For `COc1ccc2c(c1)C(=O)N(C[C@@]1(C#Cc3cccc4[nH]ccc34)NC(=O)NC1=O)C2` [Compound 1132], the Ki is 1.8 nM.

In the case of `COc1ccc2c(c1)C(=O)N(C[C@@]1(C#Cc3ccc(N)nc3)NC(=O)NC1=O)C2` [Compound 1152], the Ki turned out to be 0.03 nM.

Consider `COc1ccc2c(c1)C(=O)N(C[C@@]1(C#Cc3ccc(C)nc3)NC(=O)NC1=O)C2` [Compound 1155], for which the Ki stood at 0.41 nM.
